Measured values from ChEMBL document CHEMBL3865804, “A Gestalt approach to Gram-negative entry” (2016).
Converted amounts (≈) assume the structure as drawn.

Columns and labels:
Type in all cases: functional
[1] = test system: Streptococcus pneumoniae; test: Antibacterial activity against Streptococcus pneumoniae CL2883 by broth microdilution technique
[2] = test system: Staphylococcus aureus; test: Antibacterial activity against Staphylococcus aureus MB2865 by broth microdilution technique
[3] = test system: Enterococcus faecalis; test: Antibacterial activity against Enterococcus faecalis MB5407 by broth microdilution technique
[4] = test system: Escherichia coli; test: Antibacterial activity against Escherichia coli MB2884 by broth microdilution technique
[5] = test system: Haemophilus influenzae; test: Antibacterial activity against Haemophilus influenzae MB5363 by broth microdilution technique
[6] = test system: Klebsiella pneumoniae; test: Antibacterial activity against Klebsiella pneumoniae MB4005 by broth microdilution technique

| SMILES | MIC [1] | MIC [2] | MIC [3] | MIC [4] | MIC [5] | MIC [6] |
| --- | --- | --- | --- | --- | --- | --- |
| CC[C@H]1OC(=O)[C@H](C)[C@@H](O[C@H]2C[C@@](C)(OC)[C@@H](O)[C@H](C)O2)[C@H](C)[C@@H](O[C@@H]2O[C@H](C)C[C@H](N(C)C)[C@H]2O)[C@](C)(O)C[C@@H](C)CN(C)[C@H](C)[C@@H](O)[C@]1(C)O [AZITHROMYCIN] | 0.03 µg/mL (≈ 0.0401 µM) | 1 µg/mL (≈ 1.34 µM) | 4 µg/mL (≈ 5.34 µM) | 1 µg/mL (≈ 1.34 µM) | 0.5 µg/mL (≈ 0.668 µM) | 2 µg/mL (≈ 2.67 µM) |
| CC[C@H]1OC(=O)[C@H](C)[C@@H](O[C@H]2C[C@@](C)(OC)[C@@H](N)[C@H](C)O2)[C@H](C)[C@@H](O[C@@H]2O[C@H](C)C[C@H](N(C)C)[C@H]2O)[C@](C)(O)C[C@@H](C)N(C)C[C@H](C)[C@@H](O)[C@]1(C)O | ≤ 0.06 µg/mL | 1 µg/mL (≈ 1.34 µM) | 2 µg/mL (≈ 2.67 µM) | 0.13 µg/mL (≈ 0.174 µM) | 0.25 µg/mL (≈ 0.334 µM) | 0.13 µg/mL (≈ 0.174 µM) |
| CC[C@H]1OC(=O)[C@H](C)[C@@H](O[C@H]2C[C@@](C)(OC)[C@@H](O)[C@H](C)O2)[C@H](C)[C@@H](O[C@@H]2O[C@H](C)C[C@H](N(C)C)[C@H]2O)[C@](C)(O)C[C@@H](C)C(=O)[C@H](C)[C@@H](O)[C@]1(C)O [ERYTHROMYCIN] | 0.02 µg/mL (≈ 0.0273 µM) | 0.25 µg/mL (≈ 0.341 µM) | 1 µg/mL (≈ 1.36 µM) | 32 µg/mL (≈ 43.6 µM) | 2 µg/mL (≈ 2.73 µM) | 32 µg/mL (≈ 43.6 µM) |
| CC[C@H]1OC(=O)[C@H](C)[C@@H](O[C@H]2C[C@@](C)(OC)[C@@H](O)[C@H](C)O2)[C@H](C)[C@@H](O[C@@H]2O[C@H](C)C[C@H](N(C)C)[C@H]2O)[C@](C)(O)C[C@@H](C)N(C)C[C@H](C)[C@@H](O)[C@]1(C)O [L-701677] | 0.03 µg/mL (≈ 0.0401 µM) | 0.5 µg/mL (≈ 0.668 µM) | 2 µg/mL (≈ 2.67 µM) | 1 µg/mL (≈ 1.34 µM) | 1 µg/mL (≈ 1.34 µM) | 1 µg/mL (≈ 1.34 µM) |
